Measured values published in publication PMC7901654, “Bioisosteric Discovery of NPA101.3, a Second-Generation RET/VEGFR2 Inhibitor Optimized for Single-Agent Polypharmacology” (Journal of Medicinal Chemistry, 2020).

How the values were obtained:
Experiment in all cases: KinomeScan panel screen
Assay type in all cases: binding
ACVR1 = target: T1, ACVR1 (Homo sapiens, UniProt Q04771); settings: ACVR1, 100 nM; read-out: Percent Control
T1 construct: purchased DiscoveRx KINOMEscan (TRKA and CSF1R IC50 enzymes from Invitrogen)
T1 sequence (Q04771 21-509): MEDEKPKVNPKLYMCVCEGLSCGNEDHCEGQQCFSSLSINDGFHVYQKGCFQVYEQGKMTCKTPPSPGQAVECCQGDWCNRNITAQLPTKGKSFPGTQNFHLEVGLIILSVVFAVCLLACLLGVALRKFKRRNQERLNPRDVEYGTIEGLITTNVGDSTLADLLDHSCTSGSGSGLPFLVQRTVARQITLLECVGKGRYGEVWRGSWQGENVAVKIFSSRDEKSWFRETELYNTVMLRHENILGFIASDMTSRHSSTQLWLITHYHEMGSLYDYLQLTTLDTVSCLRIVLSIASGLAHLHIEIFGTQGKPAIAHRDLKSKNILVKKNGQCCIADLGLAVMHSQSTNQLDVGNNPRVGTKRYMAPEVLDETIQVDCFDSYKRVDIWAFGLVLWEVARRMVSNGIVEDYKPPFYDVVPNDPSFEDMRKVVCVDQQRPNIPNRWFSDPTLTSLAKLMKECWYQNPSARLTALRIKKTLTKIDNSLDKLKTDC
Experimental: (§1) In addition, NPA101.3, at a concentration of 100 nM, was subjected to a kinome scan against a 96-kinase panel representing major kinome clusters (Table S2). The compound featured good selectivity, displaying strong binding activity (>90% bound) for only seven additional kinases [CSF1R (colony stimulating factor 1 receptor), FRK (fyn-related Src family tyrosine kinase), HCK (HCK proto-oncogene, Src family tyrosine kinase), LYN (lyn proto-oncogene, Src family tyrosine kinase), MKNK2 (MAPK-interacting serine/threonine kinase 2), TRKA (neurotrophic receptor tyrosine kinase 1), and TRKC (neurotrophic receptor tyrosine kinase 3)] and weak binding (>10–35% bound) for six other kinases (Table S2 and Figure S2). It is important to note that the measurement of binding affinity, which is based on control ligand displacement (Kd), is more sensitive than the in vitro kinase assay. Among the seven kinases with >90% binding, TRKA and CSF1R were selected for an in vitro kinase assay.
(§2) Supplementary Table S2: NPA101.3 KinomeScan Panel screen.
(§3) NPA101.3 was screened at a single concentration of 100 nM. Hits values lower than
(§4) 10% of control were considered strongly positive.
(§5) DiscoveRx Gene Entrez Gene Percent Compound
(§6) Symbol Symbol Control Concentration

BRSK2 = target: T2, BRSK2 (Homo sapiens, UniProt Q8IWQ3); settings: BRSK2, 100 nM; read-out: Percent Control
T2 construct: purchased DiscoveRx KINOMEscan (TRKA and CSF1R IC50 enzymes from Invitrogen)
Experimental: as §1, §2, §3, §4, §5, §6

CAMK2A = target: T3, CAMK2A (Homo sapiens, UniProt Q9UQM7); settings: 100 nM, read-out: Percent Control
T3 construct: purchased DiscoveRx KINOMEscan (TRKA and CSF1R IC50 enzymes from Invitrogen)
Experimental: as §1, §2, §3, §4, §5, §6

CDK5 = target: T4, CDK5 (Homo sapiens, UniProt Q00535); settings: CDK5, 100 nM; read-out: Percent Control
T4 construct: purchased DiscoveRx KINOMEscan (TRKA and CSF1R IC50 enzymes from Invitrogen)
T4 sequence (Q00535 whole entry): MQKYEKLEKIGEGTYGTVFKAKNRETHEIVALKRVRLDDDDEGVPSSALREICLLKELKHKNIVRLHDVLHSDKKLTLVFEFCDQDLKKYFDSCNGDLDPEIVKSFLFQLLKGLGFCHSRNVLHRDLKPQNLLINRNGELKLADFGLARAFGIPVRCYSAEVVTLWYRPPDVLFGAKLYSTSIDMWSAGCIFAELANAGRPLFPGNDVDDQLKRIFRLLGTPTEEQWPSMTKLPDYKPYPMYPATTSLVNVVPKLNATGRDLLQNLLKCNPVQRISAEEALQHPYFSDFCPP
Experimental: as §1, §2, §3, §4, §5, §6

CHEK2 = target: T5, CHEK2 (Homo sapiens, UniProt O96017); settings: CHEK2, 100 nM; read-out: Percent Control
T5 construct: purchased DiscoveRx KINOMEscan (TRKA and CSF1R IC50 enzymes from Invitrogen)
Experimental: as §1, §2, §3, §4, §5, §6

CSF1R = target: T6, CSF1R (Homo sapiens, UniProt P07333); settings: 100 nM
T6 construct: purchased Invitrogen
T6 sequence (P07333 20-972): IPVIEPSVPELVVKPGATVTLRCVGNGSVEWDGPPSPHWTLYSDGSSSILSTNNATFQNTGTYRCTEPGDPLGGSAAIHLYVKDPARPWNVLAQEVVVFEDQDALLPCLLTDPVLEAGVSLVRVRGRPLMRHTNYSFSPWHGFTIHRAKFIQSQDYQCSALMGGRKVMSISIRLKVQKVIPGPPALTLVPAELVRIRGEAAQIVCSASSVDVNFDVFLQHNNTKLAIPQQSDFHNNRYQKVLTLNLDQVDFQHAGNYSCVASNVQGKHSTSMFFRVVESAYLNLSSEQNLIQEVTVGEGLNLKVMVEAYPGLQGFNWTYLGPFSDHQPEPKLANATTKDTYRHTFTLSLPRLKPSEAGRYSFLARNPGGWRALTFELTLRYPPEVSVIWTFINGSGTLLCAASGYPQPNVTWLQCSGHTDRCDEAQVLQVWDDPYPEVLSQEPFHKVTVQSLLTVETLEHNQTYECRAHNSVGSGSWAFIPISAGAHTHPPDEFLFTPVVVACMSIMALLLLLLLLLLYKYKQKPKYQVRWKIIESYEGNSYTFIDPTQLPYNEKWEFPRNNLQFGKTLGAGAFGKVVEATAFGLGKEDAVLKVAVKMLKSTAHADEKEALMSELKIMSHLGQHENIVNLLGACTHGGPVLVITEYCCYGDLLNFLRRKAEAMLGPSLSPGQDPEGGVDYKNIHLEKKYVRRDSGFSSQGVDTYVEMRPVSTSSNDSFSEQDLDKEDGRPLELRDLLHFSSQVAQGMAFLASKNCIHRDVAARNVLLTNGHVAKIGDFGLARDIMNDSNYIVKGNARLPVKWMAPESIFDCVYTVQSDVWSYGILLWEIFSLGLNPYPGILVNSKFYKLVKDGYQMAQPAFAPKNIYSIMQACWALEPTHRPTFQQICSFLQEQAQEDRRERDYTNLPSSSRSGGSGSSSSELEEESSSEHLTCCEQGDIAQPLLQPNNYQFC
Experimental: as §1, §2, §3, §4, §5, §6

CTK = target: T7, CTK (Homo sapiens, UniProt P42679); settings: 100 nM, read-out: Percent Control
T7 construct: purchased DiscoveRx KINOMEscan (TRKA and CSF1R IC50 enzymes from Invitrogen)
T7 sequence (P42679 whole entry): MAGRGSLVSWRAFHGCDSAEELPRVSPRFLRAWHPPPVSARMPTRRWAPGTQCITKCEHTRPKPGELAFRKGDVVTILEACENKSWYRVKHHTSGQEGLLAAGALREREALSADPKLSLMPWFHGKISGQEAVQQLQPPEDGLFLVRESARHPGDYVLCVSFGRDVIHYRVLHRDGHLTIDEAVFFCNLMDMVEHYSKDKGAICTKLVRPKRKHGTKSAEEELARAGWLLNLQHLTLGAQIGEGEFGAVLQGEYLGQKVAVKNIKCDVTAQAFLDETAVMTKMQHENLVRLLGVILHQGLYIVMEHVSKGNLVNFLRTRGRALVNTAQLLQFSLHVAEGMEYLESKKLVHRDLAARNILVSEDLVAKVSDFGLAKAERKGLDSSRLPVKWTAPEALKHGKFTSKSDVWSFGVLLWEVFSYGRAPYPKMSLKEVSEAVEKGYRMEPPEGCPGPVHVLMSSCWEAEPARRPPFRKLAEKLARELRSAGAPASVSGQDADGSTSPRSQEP
Experimental: as §1, §2, §3, §4, §5, §6

EGFR = target: T8, EGFR (Homo sapiens, UniProt P00533); settings: 100 nM, read-out: Percent Control
T8 construct: purchased DiscoveRx KINOMEscan (TRKA and CSF1R IC50 enzymes from Invitrogen)
Experimental: as §1, §2, §3, §4, §5, §6

FAK = target: T9, FAK (Homo sapiens, UniProt Q05397); settings: 100 nM, read-out: Percent Control
T9 construct: purchased DiscoveRx KINOMEscan (TRKA and CSF1R IC50 enzymes from Invitrogen)
Experimental: as §1, §2, §3, §4, §5, §6

HCK = target: T10, HCK (Homo sapiens, UniProt P08631); settings: 100 nM
T10 construct: purchased DiscoveRx KINOMEscan (TRKA and CSF1R IC50 enzymes from Invitrogen)
T10 sequence (P08631 whole entry): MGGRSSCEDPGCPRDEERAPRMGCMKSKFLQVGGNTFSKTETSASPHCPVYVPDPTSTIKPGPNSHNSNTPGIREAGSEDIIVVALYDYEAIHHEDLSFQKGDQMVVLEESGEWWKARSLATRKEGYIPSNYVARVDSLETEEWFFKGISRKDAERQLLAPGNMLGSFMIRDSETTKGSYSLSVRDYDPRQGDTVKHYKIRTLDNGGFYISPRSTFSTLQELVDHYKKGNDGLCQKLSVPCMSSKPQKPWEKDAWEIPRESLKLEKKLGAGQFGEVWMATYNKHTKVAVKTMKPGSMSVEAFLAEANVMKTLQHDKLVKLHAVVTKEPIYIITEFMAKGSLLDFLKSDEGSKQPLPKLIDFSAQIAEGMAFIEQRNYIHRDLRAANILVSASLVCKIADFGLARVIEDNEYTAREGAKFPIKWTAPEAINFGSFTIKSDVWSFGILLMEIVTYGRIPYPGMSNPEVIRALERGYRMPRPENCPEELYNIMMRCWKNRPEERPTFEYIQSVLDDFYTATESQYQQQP
Experimental: as §1, §2, §3, §4, §5, §6

IKK-beta = target: T11, IKK-beta (Homo sapiens, UniProt O14920); settings: 100 nM, read-out: Percent Control
T11 construct: purchased DiscoveRx KINOMEscan (TRKA and CSF1R IC50 enzymes from Invitrogen)
Experimental: as §1, §2, §3, §4, §5, §6

INSR = target: T12, INSR (Homo sapiens, UniProt P06213); settings: 100 nM, read-out: Percent Control
T12 construct: purchased DiscoveRx KINOMEscan (TRKA and CSF1R IC50 enzymes from Invitrogen)
Experimental: as §1, §2, §3, §4, §5, §6

ITK = target: T13, ITK (Homo sapiens, UniProt Q08881); settings: 100 nM, read-out: Percent Control
T13 construct: purchased DiscoveRx KINOMEscan (TRKA and CSF1R IC50 enzymes from Invitrogen)
Experimental: as §1, §2, §3, §4, §5, §6

[1] = target: T14, JAK1(JH2domain-pseudokinase) (Homo sapiens, UniProt P23458); settings: 100 nM, read-out: Percent Control
T14 construct: JAK1(JH2domain-pseudokinase); purchased DiscoveRx KINOMEscan (TRKA and CSF1R IC50 enzymes from Invitrogen)
Experimental: as §1, §2, §3, §4, §5, §6

LIMK2 = target: T15, LIMK2 (Homo sapiens, UniProt P53671); settings: LIMK2, 100 nM; read-out: Percent Control
T15 construct: purchased DiscoveRx KINOMEscan (TRKA and CSF1R IC50 enzymes from Invitrogen)
Experimental: as §1, §2, §3, §4, §5, §6

LYN = target: T16, LYN (Homo sapiens, UniProt P07948); settings: 100 nM
T16 construct: purchased DiscoveRx KINOMEscan (TRKA and CSF1R IC50 enzymes from Invitrogen)
T16 sequence (P07948 whole entry): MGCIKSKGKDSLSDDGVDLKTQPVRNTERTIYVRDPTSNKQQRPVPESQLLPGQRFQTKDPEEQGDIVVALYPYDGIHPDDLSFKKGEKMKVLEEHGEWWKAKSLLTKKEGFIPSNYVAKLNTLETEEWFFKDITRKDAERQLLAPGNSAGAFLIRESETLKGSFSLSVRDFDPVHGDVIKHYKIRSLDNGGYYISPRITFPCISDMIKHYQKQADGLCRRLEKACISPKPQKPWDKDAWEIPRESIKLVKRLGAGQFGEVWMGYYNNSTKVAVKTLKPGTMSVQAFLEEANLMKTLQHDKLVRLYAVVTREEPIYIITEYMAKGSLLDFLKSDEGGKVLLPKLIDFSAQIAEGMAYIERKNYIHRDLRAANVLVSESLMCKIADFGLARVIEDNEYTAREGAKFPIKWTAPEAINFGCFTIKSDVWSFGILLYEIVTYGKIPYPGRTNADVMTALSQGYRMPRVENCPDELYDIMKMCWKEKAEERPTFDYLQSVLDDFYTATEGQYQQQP
Experimental: as §1, §2, §3, §4, §5, §6

MELK = target: T17, MELK (Homo sapiens, UniProt Q14680); settings: 100 nM, read-out: Percent Control
T17 construct: purchased DiscoveRx KINOMEscan (TRKA and CSF1R IC50 enzymes from Invitrogen)
Experimental: as §1, §2, §3, §4, §5, §6

MKNK2 = target: T18, MKNK2 (Homo sapiens, UniProt Q9HBH9)
T18 construct: purchased DiscoveRx KINOMEscan (TRKA and CSF1R IC50 enzymes from Invitrogen)
T18 sequence (Q9HBH9 whole entry): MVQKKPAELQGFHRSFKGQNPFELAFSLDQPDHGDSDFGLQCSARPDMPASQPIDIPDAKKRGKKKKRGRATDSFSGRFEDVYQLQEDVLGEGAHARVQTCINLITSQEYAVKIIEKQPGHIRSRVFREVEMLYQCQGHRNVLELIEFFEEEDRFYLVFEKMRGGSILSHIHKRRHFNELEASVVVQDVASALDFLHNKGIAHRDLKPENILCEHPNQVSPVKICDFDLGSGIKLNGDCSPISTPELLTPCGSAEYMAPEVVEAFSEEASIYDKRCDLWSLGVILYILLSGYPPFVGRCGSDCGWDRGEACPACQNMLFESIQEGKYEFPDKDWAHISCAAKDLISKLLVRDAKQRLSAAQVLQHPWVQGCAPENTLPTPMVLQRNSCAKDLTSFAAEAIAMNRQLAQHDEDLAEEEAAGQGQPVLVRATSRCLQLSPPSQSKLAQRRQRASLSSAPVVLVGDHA
Experimental: as §1, §2, §3, §4, §5, §6

MLK3 = target: T19, MLK3 (Homo sapiens, UniProt Q16584); settings: MLK3, 100 nM; read-out: Percent Control
T19 construct: purchased DiscoveRx KINOMEscan (TRKA and CSF1R IC50 enzymes from Invitrogen)
Experimental: as §1, §2, §3, §4, §5, §6

MTOR = target: T20, MTOR (Homo sapiens, UniProt P42345); settings: 100 nM, read-out: Percent Control
T20 construct: purchased DiscoveRx KINOMEscan (TRKA and CSF1R IC50 enzymes from Invitrogen)
Experimental: as §1, §2, §3, §4, §5, §6

NDR1 = target: T21, NDR1 (Homo sapiens, UniProt Q15208); settings: NDR1, 100 nM; read-out: Percent Control
T21 construct: purchased DiscoveRx KINOMEscan (TRKA and CSF1R IC50 enzymes from Invitrogen)
Experimental: as §1, §2, §3, §4, §5, §6

PIK3C2B = target: T22, PIK3C2B (Homo sapiens, UniProt O00750); settings: 100 nM, read-out: Percent Control
T22 construct: purchased DiscoveRx KINOMEscan (TRKA and CSF1R IC50 enzymes from Invitrogen)
Experimental: as §1, §2, §3, §4, §5, §6

PIM1 = target: T23, PIM1 (Homo sapiens, UniProt P11309); settings: PIM1, 100 nM; read-out: Percent Control
T23 construct: purchased DiscoveRx KINOMEscan (TRKA and CSF1R IC50 enzymes from Invitrogen)
Experimental: as §1, §2, §3, §4, §5, §6

PIM2 = target: T24, PIM2 (Homo sapiens, UniProt Q9P1W9); settings: PIM2, 100 nM; read-out: Percent Control
T24 construct: purchased DiscoveRx KINOMEscan (TRKA and CSF1R IC50 enzymes from Invitrogen)
Experimental: as §1, §2, §3, §4, §5, §6

PRKD2 = target: T25, PRKD2 (Homo sapiens, UniProt Q9BZL6); settings: PRKD2, 100 nM; read-out: Percent Control
T25 construct: purchased DiscoveRx KINOMEscan (TRKA and CSF1R IC50 enzymes from Invitrogen)
Experimental: as §1, §2, §3, §4, §5, §6

PYK2 = target: T26, PYK2 (Homo sapiens, UniProt Q14289); settings: PYK2, 100 nM; read-out: Percent Control
T26 construct: purchased DiscoveRx KINOMEscan (TRKA and CSF1R IC50 enzymes from Invitrogen)
Experimental: as §1, §2, §3, §4, §5, §6

SLK = target: T27, SLK (Homo sapiens, UniProt Q9H2G2); settings: 100 nM, read-out: Percent Control
T27 construct: purchased DiscoveRx KINOMEscan (TRKA and CSF1R IC50 enzymes from Invitrogen)
T27 sequence (Q9H2G2 whole entry): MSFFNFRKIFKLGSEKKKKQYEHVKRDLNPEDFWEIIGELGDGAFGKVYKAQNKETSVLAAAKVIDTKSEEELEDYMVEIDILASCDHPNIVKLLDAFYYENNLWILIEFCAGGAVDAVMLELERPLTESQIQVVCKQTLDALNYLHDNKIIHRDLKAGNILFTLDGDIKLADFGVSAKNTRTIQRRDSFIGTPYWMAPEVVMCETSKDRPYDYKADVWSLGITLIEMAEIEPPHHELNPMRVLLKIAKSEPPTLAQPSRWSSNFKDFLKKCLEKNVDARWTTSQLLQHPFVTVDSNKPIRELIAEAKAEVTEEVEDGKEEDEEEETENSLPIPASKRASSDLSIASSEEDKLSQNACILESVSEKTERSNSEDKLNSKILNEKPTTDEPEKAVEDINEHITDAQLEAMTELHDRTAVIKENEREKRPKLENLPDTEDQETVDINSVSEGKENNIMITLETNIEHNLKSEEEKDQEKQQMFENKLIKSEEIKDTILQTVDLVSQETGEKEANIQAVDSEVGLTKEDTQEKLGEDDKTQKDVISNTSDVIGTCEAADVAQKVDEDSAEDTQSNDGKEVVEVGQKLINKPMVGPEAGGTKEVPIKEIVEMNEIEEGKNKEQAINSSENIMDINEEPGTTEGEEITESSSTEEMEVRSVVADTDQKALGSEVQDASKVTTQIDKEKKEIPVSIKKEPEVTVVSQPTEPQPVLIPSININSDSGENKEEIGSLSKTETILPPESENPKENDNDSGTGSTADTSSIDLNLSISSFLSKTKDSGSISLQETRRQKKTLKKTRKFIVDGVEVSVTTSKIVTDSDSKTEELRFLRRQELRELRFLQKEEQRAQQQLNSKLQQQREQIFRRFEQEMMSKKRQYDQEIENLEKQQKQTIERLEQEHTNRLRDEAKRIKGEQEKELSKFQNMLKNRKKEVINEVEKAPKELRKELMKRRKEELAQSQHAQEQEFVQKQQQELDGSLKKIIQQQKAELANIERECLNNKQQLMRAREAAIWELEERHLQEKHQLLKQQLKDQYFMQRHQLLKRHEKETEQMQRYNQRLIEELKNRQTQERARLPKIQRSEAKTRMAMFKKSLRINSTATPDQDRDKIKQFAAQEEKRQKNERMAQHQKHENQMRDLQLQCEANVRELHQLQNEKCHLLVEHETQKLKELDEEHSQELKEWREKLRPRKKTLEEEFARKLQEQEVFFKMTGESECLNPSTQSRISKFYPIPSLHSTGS
Experimental: as §1, §2, §3, §4, §5, §6

STK33 = target: T28, STK33 (Homo sapiens, UniProt Q9BYT3); settings: STK33, 100 nM; read-out: Percent Control
T28 construct: purchased DiscoveRx KINOMEscan (TRKA and CSF1R IC50 enzymes from Invitrogen)
Experimental: as §1, §2, §3, §4, §5, §6

SYK = target: T29, SYK (Homo sapiens, UniProt P43405); settings: 100 nM, read-out: Percent Control
T29 construct: purchased DiscoveRx KINOMEscan (TRKA and CSF1R IC50 enzymes from Invitrogen)
Experimental: as §1, §2, §3, §4, §5, §6

TLK1 = target: T30, TLK1 (Homo sapiens, UniProt Q9UKI8); settings: TLK1, 100 nM; read-out: Percent Control
T30 construct: purchased DiscoveRx KINOMEscan (TRKA and CSF1R IC50 enzymes from Invitrogen)
Experimental: as §1, §2, §3, §4, §5, §6

TTK = target: T31, TTK (Homo sapiens, UniProt P33981); settings: 100 nM, read-out: Percent Control
T31 construct: purchased DiscoverX (outsourced KINOMEscan)
Experimental: as §1, §2, §3, §4, §5, §6

CC(C)(C)c1cc(NC(=O)Cc2ccc(-n3cnc4cc(-c5ccc(S(C)(=O)=O)cc5)ccc43)cc2)no1 [NPA101.3]
remaining binding at 0.1 µM (ACVR1): 92% | remaining binding at 0.1 µM (BRSK2): 100% | remaining binding at 0.1 µM (CAMK2A): 98% | remaining binding at 0.1 µM (CDK5): 97% | remaining binding at 0.1 µM (CHEK2): 79% | binding (% bound) (CSF1R): > 90 % bound | remaining binding at 0.1 µM (CSF1R; CSF1R, read-out: Percent Control): 0.05% | remaining binding at 0.1 µM (CTK): 56% | remaining binding at 0.1 µM (EGFR): 96% | remaining binding at 0.1 µM (FAK): 86% | binding (% bound) (HCK): > 90 % bound | remaining binding at 0.1 µM (HCK; HCK, read-out: Percent Control): 6.5% | remaining binding at 0.1 µM (IKK-beta): 100% | remaining binding at 0.1 µM (INSR): 100% | remaining binding at 0.1 µM (ITK): 72% | remaining binding at 0.1 µM [1]: 93% | remaining binding at 0.1 µM (LIMK2): 94% | binding (% bound) (LYN): > 90 % bound | remaining binding at 0.1 µM (LYN; LYN, read-out: Percent Control): 2.8% | remaining binding at 0.1 µM (MELK): 83% | binding (% bound) (MKNK2; 100 nM): > 90 % bound | remaining binding at 0.1 µM (MKNK2; MKNK2, 100 nM, read-out: Percent Control): 0.15% | remaining binding at 0.1 µM (MLK3): 100% | remaining binding at 0.1 µM (MTOR): 97% | remaining binding at 0.1 µM (NDR1): 86% | remaining binding at 0.1 µM (PIK3C2B): 100% | remaining binding at 0.1 µM (PIM1): 94% | remaining binding at 0.1 µM (PIM2): 94% | remaining binding at 0.1 µM (PRKD2): 100% | remaining binding at 0.1 µM (PYK2): 95% | remaining binding at 0.1 µM (SLK): 35% | remaining binding at 0.1 µM (STK33): 83% | remaining binding at 0.1 µM (SYK): 100% | remaining binding at 0.1 µM (TLK1): 100% | remaining binding at 0.1 µM (TTK): 66%
